The record followed here is ChEMBL document CHEMBL1156115, “The design of potent and selective inhibitors of DPP-4: optimization of ADME properties by amide replacements” (Bioorg Med Chem Lett, 2009).

As usually defined, the IC50 is the concentration that gives 50% inhibition. Broadly, the half-life is how long it takes for the measured level to halve. Read a high half-life as slow decline. The Papp A→B is the apparent permeability from the apical to the basolateral side of a cell layer. A word on the inhibition: it is how much of the control response was suppressed. The bioavailability is the share of a dose that reaches the circulation, judged against a reference dose that is usually intravenous. Lower therefore signals poor availability. As a reminder, the logD is lipophilicity at a set pH, counting ionised and neutral species. Read a low logD as lower lipophilicity. What is called Papp B→A is how fast a substance crosses the layer from the basolateral side. What is called Papp is a coefficient for how fast a substance crosses the barrier.

One data set has as its target Dipeptidyl peptidase 2 (Homo sapiens, UniProt Q9UHL4). Kind of data set: Inhibition of DPP7.
The target of another data set is T1, Prolyl endopeptidase (Homo sapiens, UniProt P48147).
T1 sequence (P48147 whole entry): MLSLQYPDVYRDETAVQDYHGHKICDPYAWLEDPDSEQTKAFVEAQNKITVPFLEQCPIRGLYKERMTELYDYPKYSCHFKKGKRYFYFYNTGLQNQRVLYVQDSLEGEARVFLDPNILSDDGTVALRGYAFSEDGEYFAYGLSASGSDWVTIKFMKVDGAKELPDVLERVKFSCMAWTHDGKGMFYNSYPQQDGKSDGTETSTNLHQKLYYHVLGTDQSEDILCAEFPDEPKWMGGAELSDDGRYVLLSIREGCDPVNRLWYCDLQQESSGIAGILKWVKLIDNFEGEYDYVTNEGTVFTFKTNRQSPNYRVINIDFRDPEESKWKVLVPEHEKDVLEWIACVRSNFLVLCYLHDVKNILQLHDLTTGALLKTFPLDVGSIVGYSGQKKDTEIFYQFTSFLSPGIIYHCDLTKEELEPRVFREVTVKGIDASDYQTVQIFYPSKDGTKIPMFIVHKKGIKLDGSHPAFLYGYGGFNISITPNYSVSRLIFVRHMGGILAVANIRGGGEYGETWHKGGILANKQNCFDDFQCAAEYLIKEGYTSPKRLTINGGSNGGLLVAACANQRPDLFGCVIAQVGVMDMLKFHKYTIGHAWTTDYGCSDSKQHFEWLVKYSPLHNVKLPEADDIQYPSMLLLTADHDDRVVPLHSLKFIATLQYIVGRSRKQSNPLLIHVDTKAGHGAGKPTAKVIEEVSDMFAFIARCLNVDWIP
The data set is described as follows: Inhibition of human POP expressed in Escherichia coli after 30 mins by continuous fluorescent assay.

Data set [1] can be described thus: Half life in rat liver microsomes at 3 uM. It counts as ADME, Microsome. Background: Liver microsomes are vesicles of endoplasmic reticulum, rich in cytochrome P450 enzymes.
The nature of data set [2]: (§1) Apparent permeability from apical to basolateral side of human Caco-2 cells. It counts as ADME, cell-based. (In general: Passage across Caco-2 layers is used to estimate intestinal permeability.)
Data set [3] addresses Dipeptidyl peptidase 4 (Mus musculus) (UniProt P28843). The data set is described as follows: Inhibition of DPP4 in mouse plasma up to 60 mins. It counts as cell-free.
In a further data set the test system is Mus musculus. Kind of data set: Antihyperglycemic activity in obese mouse diabetic model assessed as reduction in peak glucose excursion at 3 mg/kg, po administered 30 mins before glucose challenge by oral glucose tolerance test. It counts as functional, organism-based. More on the design: dose 3 mg/kg.
The nature of data set [4]: Half life in Wistar rat at 1 mg/kg, iv or 3 mg/kg, po. It counts as ADME, organism-based. Particulars: in vivo.
Data set [5] is described as follows: Oral bioavailability in Wistar rat at 3 mg/kg. The conditions noted are these: in vivo. It counts as ADME, organism-based.
The nature of data set [6]: Half life in human liver microsomes at 3 uM. It counts as ADME, Microsome.
Data set [7] can be described thus: Distribution coefficient, log D of the compound. It counts as physicochemical. Particulars: octanol/water.
Data set [8] addresses Dipeptidyl peptidase 4 (Mus musculus) (UniProt P28843). The data set is described as follows: Inhibition of DPP4 in mouse plasma up to 180 mins. It counts as cell-free.
The nature of data set [9]: (§2) Apparent permeability from basolateral to apical side of human Caco-2 cells. It counts as ADME, cell-based.
Data set [10] is described as follows: Apparent volume of distribution in Wistar rat at 1 mg/kg, iv or 3 mg/kg, po. It counts as ADME, organism-based. Particulars: in vivo, read-out: Vz.
Data set [11] in a line: Clearance in Wistar rat at 1 mg/kg, iv or 3 mg/kg, po. It counts as ADME, organism-based. The conditions noted are these: in vivo.
Data set [12] relates to Caco-2. The data set is described as §1. It counts as ADME, cell-based.
The test system of data set [13] is Caco-2. The description is as §2. It counts as ADME, cell-based.

Each structure is given as a SMILES string. Active and inactive are the calls of the source. The rule behind the calls is not given here.

Sequence of Dipeptidyl peptidase 4 (Mus musculus) (P28843 whole entry, looked up): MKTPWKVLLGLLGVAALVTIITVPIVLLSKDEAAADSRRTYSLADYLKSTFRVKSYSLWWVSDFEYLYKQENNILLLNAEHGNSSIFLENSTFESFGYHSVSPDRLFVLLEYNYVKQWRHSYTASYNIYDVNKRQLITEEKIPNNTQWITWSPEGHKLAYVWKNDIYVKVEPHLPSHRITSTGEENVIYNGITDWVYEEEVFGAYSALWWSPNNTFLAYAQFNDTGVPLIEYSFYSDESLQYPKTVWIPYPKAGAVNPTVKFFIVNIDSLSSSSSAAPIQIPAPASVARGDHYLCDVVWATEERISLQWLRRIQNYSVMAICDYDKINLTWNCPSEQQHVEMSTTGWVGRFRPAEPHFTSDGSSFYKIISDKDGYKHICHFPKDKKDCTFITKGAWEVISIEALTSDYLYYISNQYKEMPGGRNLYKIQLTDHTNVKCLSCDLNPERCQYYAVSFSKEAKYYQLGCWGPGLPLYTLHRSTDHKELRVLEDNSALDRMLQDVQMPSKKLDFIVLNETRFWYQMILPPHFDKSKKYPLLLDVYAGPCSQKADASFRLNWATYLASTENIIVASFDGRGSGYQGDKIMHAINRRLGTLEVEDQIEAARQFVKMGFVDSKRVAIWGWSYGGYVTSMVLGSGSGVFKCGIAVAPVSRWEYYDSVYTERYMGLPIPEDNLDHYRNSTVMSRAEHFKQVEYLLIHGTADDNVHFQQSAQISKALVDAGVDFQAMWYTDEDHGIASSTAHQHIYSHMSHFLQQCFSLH

Take `N[C@@H](CC(=O)N1CCC[C@H]1c1noc(C2(O)CC2)n1)Cc1cc(F)c(F)cc1F`: half-maximal inhibition on Dipeptidyl peptidase 2 (IC50) required 23 µM.
As for `CC(C)(C)c1nc([C@@H]2CCCN2C(=O)C[C@H](N)Cc2cc(F)c(F)cc2F)no1`, the values for the IC50 against Prolyl endopeptidase and against Dipeptidyl peptidase 2 were more than 100 µM and 36 µM, respectively.
As for `CC(=O)N1CC(c2noc([C@@H]3CCCN3C(=O)C[C@H](N)Cc3cc(F)c(F)cc3F)n2)C1`, the IC50 against Dipeptidyl peptidase 2 came to 17 µM.
Regarding `N[C@@H](CC(=O)N1CCC[C@H]1c1nc(N2CCCC2)no1)Cc1cc(F)c(F)cc1F`, the IC50 is more than 100 µM against Prolyl endopeptidase and 3.2 µM against Dipeptidyl peptidase 2.
As to `N[C@@H](CC(=O)N1CCC[C@H]1c1nc(-c2ncc(F)cc2F)no1)Cc1cc(F)c(F)cc1F`, the half-life at 3 µM in [1] and in data set [6] was more than 2 h throughout. Moreover, the Papp A→B in [2] turned out to be 3 ×10⁻⁶ cm/s. For the same compound, the values for the IC50 against Prolyl endopeptidase and against Dipeptidyl peptidase 2 were more than 100 µM and 2 µM, respectively. Also, the inhibition came out at 79% in data set [3] and 64% in [8]. Further, the outcome in the data set on Mus musculus was Active. The half-life in [4] is 2.4 h. In addition, the bioavailability in data set [5] came out at 56%. The compound further came in with a logD in [7] of 1.32. The basolateral-to-apical permeability (Papp B→A) in data set [9] came to 73 ×10⁻⁶ cm/s. Moreover, in [10], the Vd turned out to be 17.7 L/kg. In data set [11], the clearance is 100 mL/min/kg.
For the compound `N[C@@H](CC(=O)N1CCC[C@H]1c1noc(C2(F)CC2)n1)Cc1cc(F)c(F)cc1F`, on Dipeptidyl peptidase 2, the half-maximal inhibitory concentration (IC50) was found to be 14 µM.
Consider `N[C@@H](CC(=O)N1CCC[C@H]1c1noc(C2CC2)n1)Cc1cc(F)c(F)cc1F`, for which the IC50 is more than 100 µM against Prolyl endopeptidase and 11 µM on Dipeptidyl peptidase 2.
On to `N[C@@H](CC(=O)N1CCC[C@H]1c1noc(C2(C(F)(F)F)CC2)n1)Cc1cc(F)c(F)cc1F`, for which the figures for the half-life at 3 µM in [1] and in [6] were 1 h and more than 2 h, respectively. Also, the Papp A→B in data set [2] stood at 23 ×10⁻⁶ cm/s. Besides, the half-life in data set [4] is 2.3 h. In data set [5], this compound came in with a bioavailability of 43%. Also, on Dipeptidyl peptidase 2, the IC50 was determined as 10 µM. Further, the logD in [7] was found to be 2.16. Moreover, the Papp B→A in data set [9] was 49 ×10⁻⁶ cm/s. Also, the Vd in data set [10] came to 17.5 L/kg. The clearance in [11] was 115 mL/min/kg.
For `N[C@@H](CC(=O)N1CCC[C@H]1c1nc(-c2cnccn2)no1)Cc1cc(F)c(F)cc1F`, the 50% inhibitory concentration (IC50) against Prolyl endopeptidase is more than 100 µM; on Dipeptidyl peptidase 2, 2.3 µM.
Turning to `CC(C)(F)c1nc([C@@H]2CCCN2C(=O)C[C@H](N)Cc2cc(F)c(F)cc2F)no1`, the values for the half-life at 3 µM in data set [1] and in data set [6] were 1.7 h and more than 2 h, respectively. Besides, the apical-to-basolateral permeability (Papp A→B) in [2] was found to be 14 ×10⁻⁶ cm/s. The results for the half-inhibitory concentration (IC50) on Prolyl endopeptidase and at Dipeptidyl peptidase 2 were more than 100 µM and 16 µM, respectively. For the same compound, the inhibition was found to be 70% in data set [3] and 56% in data set [8]. In the data set on Mus musculus, the outcome was Active. In data set [4], this compound showed a half-life of 1 h. This compound also registered a bioavailability in data set [5] of 100%. In addition, the logD in [7] came out at 1.46. For the same compound, the Papp B→A in data set [9] was 62 ×10⁻⁶ cm/s. The Vd in data set [10] stood at 2.9 L/kg. The compound also gave a clearance in data set [11] of 31.7 mL/min/kg.
`N[C@@H](CC(=O)N1CCC[C@H]1c1nc(C2CC2)no1)Cc1cc(F)c(F)cc1F`: the half-life at 3 µM in data set [1] is 1.18 h; in data set [6] it was more than 2 h. Further, in data set [2], the apparent permeability from apical to basolateral (Papp A→B) came to 21 ×10⁻⁶ cm/s. The compound further gave an IC50 on Dipeptidyl peptidase 2 of 3.8 µM. This compound came in with a logD in data set [7] of 1.61. Besides, the Papp B→A in [9] came out at 52 ×10⁻⁶ cm/s.
Regarding `N[C@@H](CC(=O)N1CCC[C@H]1c1nc(CC2CC2)no1)Cc1cc(F)c(F)cc1F`, the concentration for half-maximal inhibition (IC50) is more than 100 µM at Prolyl endopeptidase and 4 µM against Dipeptidyl peptidase 2.
The like results for `CC1(c2nc([C@@H]3CCCN3C(=O)C[C@H](N)Cc3cc(F)c(F)cc3F)no2)COC1` were, in that order, more than 100 µM and 38 µM.
Compound `N[C@@H](CC(=O)N1CCC[C@H]1c1nc(C2(C(F)(F)F)CC2)no1)Cc1cc(F)c(F)cc1F` showed an IC50 on Dipeptidyl peptidase 2 of 2.8 µM.
On to `N[C@@H](CC(=O)N1CCC[C@H]1c1nc(N2CCOCC2)no1)Cc1cc(F)c(F)cc1F`, for which the concentration for half-maximal inhibition (IC50) is more than 100 µM against Prolyl endopeptidase and 5.6 µM at Dipeptidyl peptidase 2.
As for `CC(C)(C)c1noc([C@@H]2CCCN2C(=O)C[C@H](N)Cc2cc(F)c(F)cc2F)n1`, the half-life at 3 µM turned out to be 0.133 h in data set [1] and 1.33 h in data set [6]. For the same compound, the apparent permeability from apical to basolateral (Papp A→B) in data set [2] turned out to be 20 ×10⁻⁶ cm/s. Besides, the half-inhibitory concentration (IC50) was 39 µM against Prolyl endopeptidase and 7 µM at Dipeptidyl peptidase 2. In data set [4], this compound showed a half-life of 1.6 h. The same compound came in with a bioavailability in [5] of 3%. The log distribution coefficient (logD) in data set [7] came out at 1.85. Further, in data set [9], the basolateral-to-apical permeability (Papp B→A) is 49 ×10⁻⁶ cm/s. Moreover, the Vd in data set [10] turned out to be 20.5 L/kg. In data set [11], this compound gave a clearance of 120 mL/min/kg.
At Dipeptidyl peptidase 2, `N[C@@H](CC(=O)N1CCC[C@H]1c1nc(-c2ccccn2)no1)Cc1cc(F)c(F)cc1F` had a 50% inhibitory concentration (IC50) of 0.886 µM. That is a sub-micromolar value.
The compound `N[C@@H](CC(=O)N1CCC[C@H]1c1nc(-c2ncccn2)no1)Cc1cc(F)c(F)cc1F` gave a 50% inhibitory concentration (IC50) against Dipeptidyl peptidase 2 of 2.2 µM.
Consider `CS(=O)(=O)N1CC(c2noc([C@@H]3CCCN3C(=O)C[C@H](N)Cc3cc(F)c(F)cc3F)n2)C1`, for which the half-life at 3 µM in data set [1] and in data set [6] was more than 2 h in each case. Moreover, the Papp came out at 0.15 ×10⁻⁶ cm/s with Caco-2 [12] and 28 ×10⁻⁶ cm/s with Caco-2 [13]. The same compound registered a half-inhibitory concentration (IC50) against Dipeptidyl peptidase 2 of 3.8 µM. In [7], this compound displayed a logD of 0.96.
